{
  "source": "patent US7585520B2",
  "about": "“Compositions containing both sedative and non-sedative antihistamines and sleep aids” (Collegium Pharmaceutical, Inc., priority 2001, dated 2009)",
  "origin": "cited, not measured here",
  "data": [
    {"details": "drug or active metabolite", "units": {"Elimination half-life": "h"}, "values": [
      {"smiles": "Clc1ccc2c(c1)CCc1cccnc1C2=C1CCNCC1", "note": "[Descarboethoxyloratidine]", "Elimination half-life": "17.3 to 24"},
      {"smiles": "CN(c1nccc(=O)[nH]1)C1CCN(c2nc3ccccc3n2Cc2ccc(F)cc2)CC1", "note": "[Mizolazine]", "Elimination half-life": "8 to 13"},
      {"smiles": "CC(C)(C)c1ccc(C(=O)CCCN2CCC(OC(c3ccccc3)c3ccccc3)CC2)cc1", "note": "[Ebastine]", "Elimination half-life": "13 to 16"},
      {"smiles": "COc1ccc(CCN2CCC(Nc3nc4ccccc4n3Cc3ccc(F)cc3)CC2)cc1", "note": "[Astemizole]", "Elimination half-life": "20 to 30"},
      {"smiles": "Oc1ccc(CCN2CCC(Nc3nc4ccccc4n3Cc3ccc(F)cc3)CC2)cc1", "note": "[Desmethylastemizole]", "Elimination half-life": 290}
    ]}
  ]
}
